# Test results reported in article PMC12212627, “Machine Learning-Based Virtual Screening of Antibacterial Agents against Methicillin-Susceptible and Resistant Staphylococcus aureus” (Journal of Chemical Information and Modeling, 2024).
# Legend:
# MRSA (ATCC n° 43300) = assay: Broth microdilution (CLSI): screening at 100 μM and MIC, MRSA reference strain; assay type: cell-based, Staphylococcus aureus; conditions: for Percentage of growth inhibition MRSA (ATCC 43300): at 100 uM, Table S4
# Protocol: (§1) E. coli (ATCC n° […]) – a TEM-1 β-lactamase producing strain, S. aureus (ATCC n° 29213) – herein referred to as MSSA, MRSA (ATCC n° 43300), and two clinical strains of MRSA (n° 5749 and 6154) were used in the biological assays. The antibacterial activity and minimal inhibitory concentration (MIC) of the screened compounds were evaluated with the broth microdilution method in 96-well microplates, according to the Clinical and Laboratory Standards Institute (CLSI) protocol. Initially, compounds were evaluated in a screening assay to identify promising hits. The compounds were dissolved in dimethyl sulfoxide (DMSO) and then diluted in Mueller Hinton broth (MHB; Oxoid, Thermo Scientific, U.K.) to a concentration of 200 μM. After the addition of 100 μL to each well, the same volume of bacterial suspension containing 10^5 CFU/mL was added to each of the previous solutions, resulting in a final compound concentration of 100 μM. A viability control (bacterial suspension only), inhibition controls (MHB containing five times the MIC of penicillin G for MSSA, vancomycin for MRSA strains, and streptomycin for E. coli), a sterility control (medium only), and a vehicle control (DMSO 2% v/v) were included in each assay microplate. After 24 h of incubation at 37 °C, the microplates were visually inspected for inhibition of bacterial growth, and the absorbance at 600 nm of each well was read using a microplate reader spectrophotometer (VersaMax, Molecular Devices, CA). The percentage of growth inhibition was calculated as the percentage of growth reduction compared with the vehicle control. Wells showing no visual bacterial growth (no turbidity) were considered hits. The MIC of the promising compounds in the initial screening were tested as previously described, with a serial dilution of each compound (100–1.56 μM). All conditions were tested in triplicate from at least three independent assays.
# [1] = Cytotoxicity, colorimetric MTT assay; assay type: cell-based; conditions: African green monkey, Vero (ATCC CCL-81) cells, 72 h incubation
# Protocol: As for the cytotoxic concentration of 50% (CC50) determination, the Vero (ATCC CCL-81) cell line was cultured in Eagle’s Minimum Essential Medium (MEM) (Cultilab, Brazil). The medium was supplemented with 5% fetal bovine serum (FBS) (Cultilab, Brazil), in addition to 100 IU/mL penicillin (Cellofarm, Brazil), 100 μg/mL streptomycin (Merck, Germany), and 0.25 μg/mL amphotericin B (Cultilab, Brazil). Cells were seeded in 96-well microplates (4.0 × 10^4 cells per well) and incubated at 37 °C and 5% CO2 atmosphere. After 24 h of incubation, 200 μL of fresh medium containing a serial dilution of the compounds (100–1.56 μM) was added to the plates. Serial dilutions of DMSO were used as vehicle controls. After 72 h of incubation under the same conditions, 100 μL of 3-(4,5-dimethylthiazol-2-yl)–2,5-diphenyltetrazolium bromide (MTT) in MEM (0.5 mg/mL) was added to each well. After 3 h of incubation with MTT (ThermoFischer Scientific), the medium was removed, and 100 μL of DMSO was added to each well to solubilize the formazan crystals. After a brief incubation under shaking for 20 min, the absorbance at 570 nm of each well was read using a spectrophotometer (VersaMax, Molecular Devices). The percentages of inhibition of cell viability were calculated by using the vehicle control. The cytotoxic concentration of 50% (CC50) is defined as the lowest concentration of a given compound that can reduce the viability of cultured cells by 50%. Posteriorly, the selectivity index (SI), that is, the ratio between the CC50 and MIC values of each active compound, was calculated. All conditions were tested in triplicate and at least two independent assays. The overall procedures applied in this work are illustrated in Figure .
# [2] = tested on: E. coli (ATCC 35218), TEM-1 β-lactamase producing strain; assay: Broth microdilution (CLSI): screening at 100 μM and MIC, E. coli; assay type: cell-based; conditions: for Percentage of growth inhibition E. coli (ATCC 35218): at 100 uM, Table S4
# Protocol: as §1
# [3] = tested on: S. aureus (ATCC n° 29213), MSSA; assay: Broth microdilution (CLSI): screening at 100 μM and MIC, MSSA; assay type: cell-based, Staphylococcus aureus; conditions: for Percentage of growth inhibition MSSA (ATCC 29123): at 100 uM, Table S4
# Protocol: as §1
# [4] = tested on: clinical strain of MRSA n° 5749; assay: Broth microdilution (CLSI): screening at 100 μM and MIC, MRSA clinical strain 5749; assay type: cell-based, Staphylococcus aureus; conditions: for Percentage of growth inhibition MRSA (5749): at 100 uM, Table S4
# Protocol: as §1
# [5] = tested on: clinical strain of MRSA n° 6154; assay: Broth microdilution (CLSI): screening at 100 μM and MIC, MRSA clinical strain 6154; assay type: cell-based, Staphylococcus aureus; conditions: for Percentage of growth inhibition MRSA (6154): at 100 uM, Table S4
# Protocol: as §1
# MSSA and MRSA strains = assay: Broth microdilution, results summed up over MSSA and MRSA strains; assay type: cell-based, Staphylococcus aureus; conditions: tested compounds of Supporting Table S4, 100 μM
# Protocol: as §1
# [6] = broth microdilution, 24 h, 37 °C
Compound,Percentage of growth inhibition MRSA (ATCC 43300) (MRSA (ATCC n° 43300)) [%],Percentage of growth inhibition E. coli (ATCC 35218) [2] [%],Percentage of growth inhibition MSSA (ATCC 29123) [3] [%],Percentage of growth inhibition MRSA (5749) [4] [%],Percentage of growth inhibition MRSA (6154) [5] [%],other results
"Cc1ccc(OCC(N)COc2ccc(C)cc2)cc1 [Compound 4, 1,3-bis(4-methylphenoxy)propano-2-aminium chloride]",,,,,,"MIC (MRSA (ATCC n° 43300); Staphylococcus aureus, ATCC 43300 / MRSA, broth microdilution, 24 h, 37 °C): 100 µM; % of growth inhibition, MRSA (ATCC 43300) (MRSA (ATCC n° 43300); at the concentration given (MIC or 100 μM where MIC >100)): 90.38%; CC50 at 72 h [1]: 19 ± 6.1 µM; inhibition at 100 µM ([2]; Escherichia coli, ATCC35218, at 100 μM, read-out: inhibition in the initial screening, E. coli): 85.5%; MIC ([2]; Escherichia coli, ATCC35218, broth microdilution, 24 h, 37 °C): 100 µM; % of growth inhibition, E. coli (ATCC 35218) ([2]; at the concentration (MIC)): 87.0%; MIC ([3]; Staphylococcus aureus, ATCC 29123 / MSSA, broth microdilution, 24 h, 37 °C): 50 µM; % of growth inhibition, MSSA (ATCC 29123) ([3]; at the concentration (MIC)): 97.80%; MIC, MRSA (5749) [4, 6]: −; MIC, MRSA (6154) [5, 6]: −"
O=C1C=C(OCc2cn(-c3ccccc3)nn2)C(=O)c2ccccc21 [S12],0,0,0,0,0,antibacterial activity (in words) (MSSA and MRSA strains): no antibacterial activity
CC1(C)OCC(CO)N1C(=O)OCc1ccccc1 (stereo not drawn) [S13],0,0,0,0,0,
O=C(C=Cc1ccccc1)NC(CO)COc1ccc([N+](=O)[O-])cc1 (stereo not drawn) [S14],0,0,0,0,0,
O=C(CCc1ccccc1)ON1C(=O)CCC1=O [S16],0,0,0,0,0,
OC(COc1cccc2ccccc12)COc1cccc2ccccc12 [S17],0,0,0,0,0,
N#Cc1ccccc1OCC(O)COc1ccccc1C#N [S18],0,0,0,0,0,
N#Cc1cccc(OCC(O)COc2cccc(C#N)c2)c1 [S19],0,0,0,0,0,
O=C1C(O)=C(Cc2cn(C3OC(CO)C(O)C(O)C3O)nn2)C(=O)c2ccccc21 (stereo not drawn) [S25],0,0,0,0,0,
O=C1C(O)=C(Cc2cn(C3OC(CO)C(O)C(O)C3O)nn2)C(=O)c2ccccc21 (stereo not drawn) [S26],0,0,0,0,0,
CC(=O)NC1C(O)C(O)C(CO)OC1n1cc(CC2=C(O)C(=O)c3ccccc3C2=O)nn1 (stereo not drawn) [S27],0,0,0,0,0,
CC(=O)OC1C(C)OC(n2cc(COC3=CC(=O)c4ccccc4C3=O)nn2)C(OC(C)=O)C1OC(C)=O (stereo not drawn) [S33],0,0,0,0,0,antibacterial activity (in words) (MSSA and MRSA strains): inactive
CC(C)=CCC1=C(NCC(=O)O)C(=O)c2ccccc2C1=O [S34],0,0,0,0,0,
C#CCOC1=C(CC=C(C)C)C(=O)c2ccccc2C1=O [S35],0,0,0,0,0,
O=C(NC(Cc1ccc(O)cc1)C(=O)O)OCc1ccccc1 (stereo not drawn) [S42],0,0,0,0,0,
NC(=O)CC(NC(=O)OCc1ccccc1)C(=O)O (stereo not drawn) [S43],0,0,0,0,0,
NCCNC(=O)c1cc2ccccc2[nH]1 [S45],0,0,0,0,0,
OCCNCc1cc2ccccc2[nH]1 [S46],0,0,0,0,0,
CCCNC(=O)c1cc2ccccc2[nH]1 [S47],0,0,0,0,0,
O=C(NCCO)c1cc2ccccc2[nH]1 [S48],0,0,0,0,0,
O=C(NCCCN1CCOCC1)c1cc2ccccc2[nH]1 [S49],0,0,0,0,0,
O=c1cc(-c2ccc(O)c(O)c2)oc2c(C3OC(CO)C(O)C(O)C3O)c(O)cc(O)c12 (stereo not drawn) [S54],0,0,0,0,0,
